Assay results: patent US6641707B2, “Biodegradation-resistant electrodepositable coating compositions and methods related thereto” (PPG Industries Ohio, Inc., priority 2001, dated 2003)

Test system: aerobic heterotrophs
Test: Bacteria Resistance Testing: acids added to infected electrodeposition permeate, spread plate count on R2A agar
Format: cell-based
Conditions: reactors rolled at 32° C.; for Bacteria Count 3 day: plated at 3 days; for Bacteria Count 7 day: plated at 7 days; for Bacteria Count 10 day: plated at 10 days
Description: Infected rinsewater from an online electrodeposition bath tank (containing E6100, commercially available from PPG Industries, Inc.) having a bacterial count of 1.5×10^6 cfu/mL was used to inoculate filter-sterilized ultrafiltrate (“permeate”) collected from the same line. The infected rinsewater was diluted by a factor of 10^3 into the sterile permeate. The infected permeate was added to reactors. The various acids listed below in the following Table 2 were prepared as 1% solutions in water and tested at 1000, 500, and 200 ppm of active material. Reactors were rolled for 10 days at 32° C. and were plated for bacteria counts at 3, 7, and 10 days.
The enumeration of aerobic heterotrophs in the reactors utilized the standard spread plate method as described in Standard Methods for the Examination of Water and Wastewater, 1992, section 9215C. Bacterial counts were examined using R2A agar plates. 100 μL of a suitable dilution of sample was pipetted onto the surface of the media and spread with an alcohol and flame sterilized glass rod. The plates were inverted and incubated for 3 days at 32° C. with periodic examination. Colony forming units were counted on a New Brunswick Bactronic Colony Counter. A target of 30 to 300 cfu per plate was considered a valid count.

[1] = acid at 200 ppm of active material
[2] = acid at 500 ppm of active material
[3] = acid at 1000 ppm of active material

| Compound | Bacteria Count 3 day [1] | Bacteria Count 7 day [1] | Bacteria Count 10 day [1] | Bacteria Count 3 day [2] | Bacteria Count 7 day [2] | Bacteria Count 10 day [2] | Bacteria Count 3 day [3] | Bacteria Count 7 day [3] | Bacteria Count 10 day [3] |
| --- | --- | --- | --- | --- | --- | --- | --- | --- | --- |
| CCCCOCC(=O)O [Butoxyacetic, butoxyacetic acid] | 3.0 × 10^6 | 1.2 × 10^7 | 5.6 × 10^7 | <4.0 × 10^1 | <4.0 × 10^1 | <4.0 × 10^1 | <4.0 × 10^1 | <4.0 × 10^1 | <4.0 × 10^1 |
| COCCOCCOCC(=O)O [2-[2-(2-methoxyethoxy)-ethox]acetic, 2-[2-(methoxyethoxy)ethoxy]acetic acid] | 3.2 × 10^6 | 4.0 × 10^7 | 5.2 × 10^7 | <4.0 × 10^1 | >1.2 × 10^4 | 6.4 × 10^6 | <4.0 × 10^1 | <4.0 × 10^1 | <4.0 × 10^1 |
| O=C(O)COc1ccccc1 [Phenoxyacetic, phenoxyacetic acid] | 4.0 × 10^6 | 8.0 × 10^6 | 3.2 × 10^7 | <4.0 × 10^1 | <4.0 × 10^1 | <4.0 × 10^1 | <4.0 × 10^1 | <4.0 × 10^1 | <4.0 × 10^1 |
| COCC(=O)O [Methoxyacetic, methoxyacetic acid] | <4.0 × 10^1 | <4.0 × 10^2 | <4.0 × 10^1 | <4.0 × 10^1 | <4.0 × 10^1 | <4.0 × 10^1 | <4.0 × 10^1 | <4.0 × 10^1 | <4.0 × 10^1 |
| CCOCC(=O)O [Ethoxyacetic, ethoxyacetic acid] | 1.3 × 10^6 | 3.2 × 10^7 | 4.8 × 10^7 | <4.0 × 10^1 | <4.0 × 10^1 | <4.0 × 10^1 | <4.0 × 10^1 | <4.0 × 10^1 | <4.0 × 10^1 |
| COCCOCC(=O)O [2-(2-methoxyethoxy)acetic, 2-(2-methoxyethoxy)acetic acid] | 8.0 × 10^6 | 2.8 × 10^7 | 2.3 × 10^7 | <4.0 × 10^1 | >1.2 × 10^4 | 4.0 × 10^6 | <4.0 × 10^1 | <4.0 × 10^1 | <4.0 × 10^1 |
| CC(O)C(=O)O (stereo not drawn) [Lactic, lactic acid, reference compound] |  |  |  | 7.2 × 10^7 | 7.8 × 10^7 | 2.4 × 10^7 | 2.4 × 10^7 | 5.0 × 10^7 | 2.3 × 10^7 |
